This passage reports GHS category results from the CATMoS acute toxicity set (Mansouri et al. 2021).

Where a SMILES comes first, the peptide text is derived from it. [ ]: non-standard residue; d: D form. The star is where a group is joined. Sta = CC(C)C[C@H](N)[C@@H](O)CC(=O)O; Isovaleryl = CC(C)CC(=O)*

The data set in a line: GHS categories as the set defines them, by LD50: 1 up to 5, 2 up to 50, 3 up to 300, 4 up to 2000, 5 above 2000 mg/kg. The note with it: rat; in vivo; po.
Take `NCCC(=O)NC(Cc1cnc[nH]1)C(=O)O` (stereo unspecified): the GHS category turned out to be 5. In the case of `S=C(SSSSSSC(=S)N1CCCCC1)N1CCCCC1`, the GHS category worked out at 5.

Take `Cc1c([N+](=O)[O-])c(C)c([N+](=O)[O-])c(C(C)(C)C)c1[N+](=O)[O-]`: the GHS category was 5.

Turning to `CC(C)(C)c1cc(CCC(=O)NCCCCCCNC(=O)CCc2cc(C(C)(C)C)c(O)c(C(C)(C)C)c2)cc(C(C)(C)C)c1O`, the GHS category is 5. In the case of `COc1ccccc1NC(=O)c1cc2ccccc2c(N=Nc2ccc(C(N)=O)cc2)c1O` it was 5. With `CN1CCN(C(=S)SSC(=S)N2CCN(C)CC2)CC1` the figure was 5. In the case of `CCCOc1ccc(Cl)c2c(=O)c3ccccc3sc12` it was 5. Take `C#C[C@]1(O)CC[C@H]2[C@@H]3CCc4cc(OC)ccc4[C@H]3CC[C@@]21C`: the GHS category is on record as 5.

For `CC1(C)C[C@@H]1C(=O)N/C(=C\CCCCSC[C@H](N)C(=O)O)C(=O)O`, the GHS category is 5. Turning to `CCCC=CCC1CCCC1=O` (stereo unspecified), the GHS category was determined as 5. With `CCC(=O)OCC(=O)[C@@]1(OC(=O)CC)[C@@H](C)C[C@H]2[C@@H]3CCC4=CC(=O)C=C[C@]4(C)[C@@]3(Cl)[C@@H](O)C[C@@]21C` the figure was 5; with `CCOC(=O)/C(Cl)=C/c1cc(N2C(=O)C3=C(CCCC3)C2=O)ccc1Cl`, 5. In the case of `CCCCCCC(C(C)=O)C(=O)OCC` (stereo unspecified) it was 5; in that of `COP(=O)(NC(=O)C(C)C)SC` (stereo unspecified), 4. In the case of `CN1CCN(CC(=O)N(C)c2ccc(N)cc2)CC1` it was 5. For the molecule `CO[Si](CC(C)CC(C)(C)C)(OC)OC` (stereo unspecified), the GHS category is reported as 5. For the molecule `COC(=O)[C@H](Cc1ccccc1)NC(=O)[C@@H](N)CC(=O)O` (H-Asp-Phe-OMe), the GHS category came to 5. With `CC(C)(C)CC(C)(C)c1ccc(O)c(Cc2ccc(Cl)cc2Cl)c1` the figure was 5; with `Cc1c(Cc2ccc(-c3ccccc3-c3nn[nH]n3)cc2)c(=O)nc2nc[nH]n12`, 4; with `CCCCCCCCCCOCCN1CCCC1=O`, 5.

With `CC(=O)OC1CCC(NCc2ccccc2N)CC1` (stereo unspecified), the GHS category was 5.

As for `C1=CCC(c2ccccc2)CC1` (stereo unspecified), the GHS category stood at 5. In the case of `Clc1ccc(C(Cn2ccnc2)OCc2ccc(Sc3ccccc3)cc2)c(Cl)c1` (stereo unspecified) it was 5. In the case of `Cc1cc2[nH]c(=O)[nH]c2cc1N=NC1C(=O)NC(=O)NC1=O` it was 5; in that of `COc1nc(C)nc(NC(=O)NS(=O)(=O)c2ccccc2OCCCl)n1`, 5; in that of `CC(=O)c1ccc2c(c1)oc(=O)n2C`, 5. As for `Nc1cc(Br)c(O)c2c(O)c3c(N)cc(Br)c(O)c3c(O)c12`, the GHS category worked out at 5. Molecule `OC1CCC2CCCCC2C1` (stereo unspecified) registered a GHS category of 5. With `CC=Cc1ccc(OCCCCC)c(OC)c1` the figure was 5; with `CCCCCCCCCCCCCC(=O)OC(C)C`, 5; with `Cc1cccc2ncc(C(=O)Nc3ccccc3)c(=O)n12`, 3.

With `O=C(O)CCCCCCCCCCC(=O)O`, the GHS category is recorded as 5. With `COc1cc(OC)nc(NC(=O)NS(=O)(=O)Nc2ccccc2C(=O)N(C)C)n1` the figure was 5; with `NC(=O)c1ccc[n+]([C@@H]2O[C@H](COP(=O)([O-])OP(=O)(O)OC[C@H]3O[C@@H](n4cnc5c(N)ncnc54)[C@H](O)[C@@H]3O)[C@@H](O)[C@H]2O)c1`, 5; with `CC(C)(C)C1CCC(CC2=C(O)C(=O)c3ccccc3C2=O)CC1` (stereo unspecified), 5. In the case of `CCCCCCC(=O)OC1CCC2C3CCC4=CC(=O)CCC4(C)C3CCC12C` (stereo unspecified) it was 4; in that of `c1ccc(Cn2ccnc2-c2nn[nH]n2)cc1`, 5; in that of `CC(=O)c1ccc2c(c1)OCC(=O)N2C`, 5. With `CC(C)CC(=O)N[C@H](C(=O)N[C@H](C(=O)N[C@@H](CC(C)C)[C@@H](O)CC(=O)N[C@@H](C)C(=O)N[C@@H](CC(C)C)[C@@H](O)CC(=O)O)C(C)C)C(C)C` (Isovaleryl-VV[Sta]A[Sta]-OH) the figure was 5; with `CCC(=O)OCCCc1ccccc1`, 5; with `O=C(CCc1ccc2c(c1)OCO2)C1C(=O)CC(c2ccccc2)CC1=O` (stereo unspecified), 5. Regarding `CCCCC/C=C\C=C\C(=O)OCC`, the GHS category is 5.

Molecule `CC(=O)OC(C)Cc1ccccc1` (stereo unspecified) gave a GHS category of 5.

Regarding `O=C(O)CCC(=O)O`, the GHS category was found to be 5.

As for `CNC(=O)c1sc(-c2ccccc2OC)nc1C`, the GHS category is on record as 5. With `COCC(=O)N(c1c(C)cccc1C)[C@H](C)C(=O)OC` the figure was 4. `CN(Cc1ccc(C(C)(C)C)cc1)Cc1cccc2ccccc12` displayed a GHS category of 5. In the case of `CCCCCCCC1CCCC1=O` (stereo unspecified) it was 5; in that of `CCCCCC(O)CC` (stereo unspecified), 5. On to `CC(C)=CCC/C(C)=C/CC/C(C)=C/CCC(=O)OC/C=C(\C)CCC=C(C)C`, for which the GHS category was determined as 5.

In the case of `CC(=O)OCC(=O)[C@@]1(O)CC[C@H]2[C@@H]3CCC4=CC(=O)CC[C@]4(C)[C@@]3(F)[C@@H](O)C[C@@]21C`, the GHS category stood at 4.

`CCCCCCCCCCCC(=O)OCC(COC(=O)CCCCCC)OC(=O)CCCCCCC` (stereo unspecified) came in with a GHS category of 5. In the case of `CCCCCCCCCCCCCCCCCC` it was 5; in that of `COC(=O)Cc1c(C(=O)OC)sc(N)c1C#N`, 5; in that of `COC(=O)C(C)O` (stereo unspecified), 5. In the case of `Cc1cccc2c1NC(=O)C2(c1ccc(OS(=O)(=O)O)cc1)c1ccc(OS(=O)(=O)O)cc1` it was 5.

Molecule `CCCCCCCCCCCCOCCOCCOCCOCCOCCOCCOCCOCCOCCOCCOCCOCCOCCOCCOCCOCCOCCOCCOCCOCCOCCOCCOCCO` gave a GHS category of 5. In the case of `O=c1cc(-c2ccccc2)c2ccc(OCCCN3CCC(c4ccccc4)CC3)cc2[nH]1` it was 4. With `CCN1CCN(C(=O)N[C@@H](C(=O)N[C@@H]2C(=O)N3C(C(=O)O)=C(CSc4nnnn4C)CS[C@H]23)c2ccc(O)cc2)C(=O)C1=O` the figure was 5; with `CCCCCCBr`, 5. In the case of `CC(=O)OCOC(=O)C1=C(COC(N)=O)SC2C(C(C)O)C(=O)N12` (stereo unspecified) it was 5; in that of `CCSCCCSc1nnnn1C`, 4.

With `C[C@]12CC[C@H](O)CC1=CC[C@@H]1[C@@H]2CC[C@]2(C)C(=O)CC[C@@H]12`, the GHS category is 5.

As for `CC(C)C(=O)OCCOc1ccccc1`, the GHS category is given as 5. Take `CCCCC1=NC2(CCCC2)C(=O)N1Cc1ccc(-c2ccccc2C#N)cc1`: the GHS category is listed as 5. In the case of `BrC1CC(Br)CC(Br)CC(Br)CC(Br)CC(Br)C1` (mixture of isomers) it was 5; in that of `CN1C(=O)CCC1=O`, 5.

Molecule `CC#Cc1cc(C)nc(Nc2ccccc2)n1` gave a GHS category of 5.

Turning to `CCCCCCCCC=CCCCCCCOC(C)=O`, the GHS category is recorded as 5. With `OC(Cc1ccccc1Cl)(Cn1[nH]cnc1=S)C1(Cl)CC1` (stereo unspecified) the figure was 5; with `NC(=O)Oc1ccccc1C(=O)Oc1ccc([N+](=O)[O-])cc1`, 5.
